The text below walks through data of PubChem BioAssay (NCI).

Common to all, as to assay: growth of human tumour cells (NCI), 48 h
Test [1] concerns 786-0 renal.
The test system of test [2] is A498 renal.
Test [3] concerns CAKI-1 renal.
Test [4] concerns EKVX NSCLC.
Test [5] concerns HCT-15 colon.
Test [6] concerns HOP-62 NSCLC.
Test [7] has as its system NCI-H226 lung.
Test [8] concerns RXF 393 renal.
Test [9] deals with SF-268 CNS.
The subject of test [10] is SF-295 CNS.
The subject of test [11] is SF-539 CNS.
Test [12] has as its system SK-MEL-2 melanoma.
The test system of test [13] is SK-MEL-28 melanoma.
Test [14] relates to SK-OV-3 ovarian.
Test [15] concerns SNB-19 CNS.
The subject of test [16] is SNB-75 CNS.
Test [17] has as its system U251 CNS.
Test [18] has as its system UO-31 renal.
Test [19] has as its system NCI/ADR-RES ovarian.

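These data come from cells grown in 96-well plates and exposed to compound for 48 hours at five concentrations. Definition used: TGI = concentration required for complete inhibition of growth.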

Consider `CC(=O)Nc1ccc(-c2nnc(SCC(=O)Nc3cccc(Cl)c3)o2)cc1`, for which the TGI in test [1] is 23.7 µM; in test [2], 34 µM; in [3], 33.2 µM; in [4], 45 µM; in test [5] it was > 100 µM; in [6] it was 36.2 µM. Also, the TGI in test [7] was determined as 48.8 µM; in test [8], 31.4 µM; in test [9] it was 37.8 µM; in test [10], 33.6 µM; in [11], 34.8 µM; in test [12], 70.4 µM. Moreover, the TGI in test [13] was 33.8 µM; in test [14], > 100 µM; in test [15], 39.4 µM; in test [16], 71.9 µM; in [17], 23.2 µM; in test [18], 76.9 µM.

On to `O=C1Cc2nc(CO)c(CO)c(CO)c2CO1`, for which the TGI in test [1], in test [2], in test [3], in test [4], in test [5] and in test [6] was > 100 µM throughout. The TGI in [9], in [10], in test [11], in [12], in [13] and in [14] was > 100 µM each time. Moreover, the TGI in test [15], in test [16], in [17] and in [18] was > 100 µM throughout.

With `CN/C=C(\C(=O)c1ccc(OC)c(OC)c1)c1ccc(OC)cc1`, the TGI is 23.9 µM in [1]; 28.2 µM in test [2]; > 100 µM in test [4]; 28.2 µM in test [5]; 94 µM in [6]; 41.5 µM in test [7]. Also, the TGI was 33.2 µM in test [8]; 72.9 µM in test [9]; > 100 µM in test [10]; 14.1 µM in test [11]; 31.5 µM in [12]; 39.7 µM in test [13]. Moreover, the TGI in test [14] was > 100 µM; in [15], > 100 µM; in [16], > 100 µM; in [17], 21.3 µM; in test [18], 48.6 µM.

On to `COC1(C)C(=O)N2C1N(C(=O)OC(C)(C)C)CC2(C)C` (stereo not drawn), for which the TGI in [1], in [2], in test [3], in [4], in test [5] and in test [6] was > 100 µM in each case. In addition, the TGI in [7], in test [8], in test [9], in [10], in [11] and in test [12] was > 100 µM throughout. Further, the TGI in test [13], in [14], in [15], in [16], in [17] and in [18] was > 100 µM throughout.

Consider `CC[C@]12C=CCN3CCC4(c5cc([C@@]6(C(=O)OC)CC7CN(CCc8c6[nH]c6ccccc86)C[C@@H]6CCCC[C@H]76)c(OC)cc5N(C)C4[C@](O)(C(=O)OC)C1OC(C)=O)[C@@H]32` (stereo partly drawn), for which the TGI amounted to 12.5 µM in test [1]; 16.7 µM in test [3]; 22.8 µM in test [4]; 12.5 µM in [5]; 14.4 µM in [6]; 15.3 µM in test [7]. Besides, the TGI in [19] is 0.0886 µM; in test [9], 16.5 µM; in test [11], < 0.01 µM; in test [12] it was 7.85 µM; in test [13] it was 17.1 µM; in [15] it was 18.1 µM. Besides, the TGI in test [17] is < 0.01 µM; in test [18] it was 8.58 µM.

Take `c1cc2nnsc2s1`: the TGI in test [1], in [2], in test [3], in test [4], in test [5] and in [6] was > 100 µM throughout. Further, the TGI in test [7], in [9], in [10], in test [11], in [12] and in test [13] was > 100 µM each time. Also, the TGI in [14], in test [15], in test [16], in test [17] and in [18] was > 100 µM each time.

With `CC(c1ccc2c(c1)CCC1C2CC2OC23CC=CC(=O)[C@]13C)C1C[C@]2(C)O[C@]2(C)[C@H](O)O1` (stereo partly drawn), the TGI in [1] is > 100 µM; in test [3] it was 81.3 µM; in test [4], > 100 µM; in test [5], > 100 µM; in [6] it was 40.3 µM; in [7], 72 µM. For the same compound, the TGI in test [8] is 50.5 µM; in test [9], > 100 µM; in test [11] it was > 100 µM; in [12], > 100 µM; in [13], > 100 µM; in test [14], > 100 µM. For the same compound, the TGI in test [15] is > 100 µM; in [16], > 100 µM; in [17], 55.3 µM; in [18] it was > 100 µM.

With `COc1ccc(N2C(=O)C3c4[nH]c5ccccc5c4C4CC(C)(C)CC(C)(C)C4C3C2=O)cc1` (stereo not drawn), the TGI in test [1] was 28.3 µM; in [2], 30.1 µM; in test [4] it was 38.2 µM; in [5] it was > 100 µM; in test [6], 31.3 µM; in test [7], 29.3 µM. In addition, the TGI in [8] worked out at 33.1 µM; in test [9] it was 54 µM; in test [10], 21.4 µM; in test [11], 27.2 µM; in test [13], 27.7 µM; in [14], 38.2 µM. Also, the TGI in test [15] is 52.7 µM; in test [16] it was 34.5 µM; in [17], 31.2 µM; in test [18], > 100 µM.

In the case of `CC1C2CC(CC2(C)O)C1(C)C` (stereo not drawn), the TGI in [1], in test [2], in [3], in test [4], in test [6] and in test [7] was > 100 µM each time. Also, the TGI in test [8], in test [9], in [10], in test [11], in test [13] and in test [14] was > 100 µM each time. Further, the TGI in test [15], in [16], in test [17] and in test [18] was > 100 µM throughout.

With `CCOC(=O)C1=C(C)NC2=C(C(=O)N(c3ccccc3)C2c2ccccc2)C1c1ccccc1` (stereo not drawn), the TGI in [1] was determined as 35.8 µM; in [3], 31.6 µM; in test [4] it was 44.2 µM; in test [5], 32.2 µM; in test [6] it was 33.4 µM; in test [7] it was 37.1 µM. The TGI was 33.7 µM in test [9]; 33.1 µM in test [11]; 33.5 µM in [12]; 34.8 µM in [13]; 31.4 µM in test [14]; 26.6 µM in test [16]. The TGI in [17] is 29.3 µM; in [18] it was 39.1 µM.

Take `CC(=O)c1cc2c(s1)C(=O)c1sccc1C2=O`: the TGI was 0.421 µM in [1]; 2.77 µM in [2]; 0.413 µM in [3]; 0.475 µM in test [4]; 0.0534 µM in test [5]; 0.0854 µM in test [6]. Moreover, the TGI in test [7] stood at 0.407 µM; in test [19], 0.309 µM; in test [8], 0.0919 µM; in [9] it was 0.0889 µM; in [10] it was 0.0852 µM; in [11], 0.0348 µM. The TGI in test [12] is 0.193 µM; in test [14], 3.2 µM; in [15], 0.202 µM; in test [16], 0.0491 µM; in [17], 0.0556 µM; in [18] it was 0.0908 µM.

For the compound `CC(=O)OCC1OC(OC2C(COC(C)=O)OC(Sc3ccccc3C)C(OC(C)=O)C2OC(C)=O)C(OC(C)=O)C(OC(C)=O)C1OC(C)=O` (stereo not drawn), the TGI in test [1], in test [2], in test [3], in test [4], in [5] and in test [6] was > 100 µM in each case. Moreover, the TGI in test [7], in [8], in test [9], in test [10], in test [11] and in test [12] was > 100 µM each time. The TGI in test [13], in test [14], in test [15], in test [16], in test [17] and in test [18] was > 100 µM each time.

For the compound `COC(=O)[C@@]1(C)C(=O)CC[C@@H]1C=O`, the TGI in [1], in [2], in test [3], in test [4], in test [5] and in [6] was > 100 µM each time. Also, the TGI in test [7], in [9], in test [10], in [11], in test [12] and in test [14] was > 100 µM each time. Besides, the TGI in test [15], in [17] and in test [18] was > 100 µM throughout.
